Test system: HSV-1 KOS virions
Experiment: Electron microscopy of peptide-treated virions (aggregation)
Settings: 25 μM peptide, purified virus particles
Procedure: Purified HSV-1 KOS virions (2.5×10^7 pfu/ml) according to Visalli et al., Virus Res. 29:167 (1993) were treated with 25 μM antiviral peptide SEQ ID NO:1 or the control peptide EBX (SEQ ID NO: 17) in 40 μl serum-free DMEM buffered with 25 mM Hepes (pH 7.4) for 5 to 60 min at 4 or 23° C. Aliquots (10 μl) were adsorbed to pioloform poly-L-lysine-coated grids for 5 min at 23° C. Grids were rinsed with PBS, stained with 2% phosphotungstic acid (PTA) in water adjusted to pH ˜6 and air dried. Alternatively, virus was pre-adsorbed to grids and treated with peptides thereafter. A total of 4×10^9 pfu/ml of purified HSV-1 KOS in 5 μl PBS was applied to the coated grids for 5 min at 23° C., and the grids were rinsed once with serum-free DMEM buffered with 25 mM Hepes (pH 7.4) and treated with 15 μl of 5 mM EB or EBX in the same medium for 30 min at 37° C. The pH of highly concentrated solutions of antiviral peptide SEQ ID NO:1 and EBX was re-adjusted to 7.4 with NaOH prior to use. To prevent evaporation of the peptide-containing solutions, each grid was held in a Hiraoka flexible staining plate and covered with miniature bell jar made from an 0.5 ml polypropylene micro-centrifuge tubes, small enough for the 15 μl to fill half of the bell jar facing the coated surface of the grid. The entire assembly was then incubated in a moist chamber for 30 min at 37° C. […]

H-RRKKAAVALLPAVLLALLAP-OH [EB]
state of virus particles by electron microscopy: nearly all of the particles were seen in relatively few large aggregates
